Laboratory results reported in patent US11649238B2, “Substituted pyrazolo[1,5-a]pyrimidines as PI4K inhibitors” (GLAXOSMITHKLINE INTELLECTUAL PROPERTY DEVELOPMENT LIMITED, priority 2018, dated 2023).

How the values were obtained:
[1] = intranasal administration, cited from earlier work; for accumulation of compound in lung tissue: rat model
[2] = target: T1, human PI4KIII-beta 13-828 (D316-330) (Homo sapiens, UniProt Q9UBF8); assay: PI4 KB Activity Assay (ADP-GLO Kinase assay); assay type: biochemical; conditions: 1 mM ATP, 60 μM phosphatidylinositol, 3 hours at room temperature; read-out: mean pIC50 (converted)
T1 construct: human PI4KIII-beta 13-828 (D316-330)
T1 sequence (Q9UBF8 1-801 isoform Q9UBF8-2): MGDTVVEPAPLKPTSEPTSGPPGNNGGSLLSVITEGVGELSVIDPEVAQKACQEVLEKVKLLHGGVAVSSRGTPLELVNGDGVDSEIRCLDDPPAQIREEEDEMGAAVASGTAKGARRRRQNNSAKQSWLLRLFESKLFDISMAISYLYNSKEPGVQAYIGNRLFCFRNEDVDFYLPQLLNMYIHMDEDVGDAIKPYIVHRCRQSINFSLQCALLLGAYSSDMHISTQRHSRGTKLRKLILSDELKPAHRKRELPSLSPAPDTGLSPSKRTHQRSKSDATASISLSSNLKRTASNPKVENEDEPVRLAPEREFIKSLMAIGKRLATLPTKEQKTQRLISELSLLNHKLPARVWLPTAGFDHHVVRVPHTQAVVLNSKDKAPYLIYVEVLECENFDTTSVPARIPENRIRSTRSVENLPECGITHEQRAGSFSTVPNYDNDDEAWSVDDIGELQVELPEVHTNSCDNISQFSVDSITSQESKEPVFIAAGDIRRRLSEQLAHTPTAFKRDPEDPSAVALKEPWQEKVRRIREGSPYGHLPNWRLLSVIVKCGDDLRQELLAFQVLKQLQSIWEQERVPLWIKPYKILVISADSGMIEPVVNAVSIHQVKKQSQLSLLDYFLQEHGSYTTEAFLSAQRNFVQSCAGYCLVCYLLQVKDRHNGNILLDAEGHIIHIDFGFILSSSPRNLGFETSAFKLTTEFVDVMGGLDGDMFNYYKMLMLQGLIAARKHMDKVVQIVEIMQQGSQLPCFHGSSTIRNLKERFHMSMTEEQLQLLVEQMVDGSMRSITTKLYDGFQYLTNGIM
Procedure: The in vitro inhibition of human PI4KIII-beta 13-828 (D316-330) activity was determined by using the ADP-GLO Kinase assay kit from Promega. Inhibitors were dissolved in 100% DMSO at a concentration of 1 mM. Dilutions were prepared in 100% DMSO using a 1 in 3 serial step dilution. A 60 nL stamp from an 11-point titration was transferred to a white low volume 384 well Greiner assay plate ensuring a final DMSO concentration of 1% across the plate and a top final concentration of inhibitor of 10 μM. The PI4KIII-beta assay contained 25 mM Hepes pH 7.5 (NaOH), 10 mM MgCl2, 0.5 mM EGTA, 0.1% Triton X-100, 2 mM TCEP, and 0.1 mg/ml BSA, 1 mM ATP, 60 μM phosphatidylinositol, and 1.5 nM human PI4K-beta 13-828 (D316-330) in a total volume of 6 μL. The assay was initiated with the addition of enzyme, covered, and incubated at room temperature for 3 hours. The assays were stopped with the addition of 6 μl ADP-GLO Reagent containing 0.1% CHAPS to deplete the unconsumed ATP. The plates were incubated at room temperature for 60 min and then 12 μl of the Kinase Detection Reagent containing 0.1% CHAPS was added to convert ADP to ATP and introduce luciferase and luciferin. After 40 min incubation at room temperature the luminescent signal was read on a BMG Labtech PHERAstar FS with the following settings; Gain 3600, Focal height 13.7 mm, measurement interval time 1 s, Settling time 0.2 s. The inhibitory effect of the PI4K-beta activity of the compounds was evaluated by the IC50 of the response relative to the high, no compound, and low, no enzyme, controls by fitting to the four parameter dose response question.

[3] = test system: human rhinovirus Type A Strain 16 (HRVA16) in HeLa Ohio cells; assay: Cytopathic Effect (CPE) Assay, ATP-depletion in infected HeLa Ohio cells; assay type: cell-based; conditions: Human rhinovirus sp., HRVA16, HeLa, 48 h, HRVA16 at MOI of 1, 33° C. for 2 days, CellTiter-Glo, read-out: mean pIC50 (converted)
Procedure: c) Cytopathic Effect (CPE) Assay Protocol
The in vitro inhibition of PI4 KB activity was determined by analysis of the inhibition of ATP-depletion in HeLa Ohio cells in response to infection with human rhinovirus Type A Strain 16 (HRVA16). ATP levels were determined using CellTiter-GLO reagent from Promega. Compounds that inhibit PI4 KB are also potent inhibitors of human rhinoviruses and are able to protect HeLa Ohio cells from CPE induced by viral infection and replication. Protected cells remain viable following viral infection and therefore have greater ATP levels.
Compounds were dissolved in 100% DMSO to a concentration of 3 mM and subsequent dilutions were prepared in 100% DMSO using a 1:3 serial step dilution. A 0.5 μL stamp from an 10-point titration was transferred to a white 96 well Greiner tissue culture flat bottom plate (655083). A 0.5 μL stamp of 100% DMSO was stamped into columns 11 and 12 of the plate, ensuring a final assay DMSO concentration of 0.33% across the plate and a compound top final assay concentration of 10 μM.
HeLa Ohio cells were cultured at 37° C., 5% CO2 in media (DMEM supplemented with 10% Australian origin foetal bovine serum and 2 mM glutamax). Cells were passaged when confluency reached >80%. For the assay, cells were grown to 80-90% confluency before detachment.
Cells were detached for the assay by washing with PBS and detached using 3 mL TrypLE Express for […] at 37° C. Detached cells were mixed with 7 mL of media and centrifuged at 300 g for 5 min. The cell pellet was resuspended in 50 mL media and counted on a Beckman Coulter ViCell. Cells were diluted to 6.6×10^4 cells/mL and some of the cell volume was removed into a new tube to be used as a column 12 control. HRVA16 stock was added to the remaining cell suspension at the appropriate dilution for the virus stock to achieve an MOI of 1.
150 μL of the cell+virus suspension was added per well to columns 1-11 using a Multidrop Combi. 150 μL of the separate cell suspension was added per well to columns 12 using a multichannel pipette. Assay plates were sealed and incubated at 33° C., 5% CO2 for 2 days. After 2 days, assay plates were removed from the incubator and allowed to equilibrate to room temperature. 60 μL of CellTiter-Glo reagent was added to all wells using a Thermo Scientific Multidrop Combi. Plates were incubated at room temperature for 20 min before reading on an a Perkin Elmer Envision (Settings: Gripper height 2.5, Fixed measurement height (mm) 6.5, Distance between plate and detector 0, Measurement time (s) 0.1, Glow (ct2) correction factor (0%)).
The inhibitory effect of the compounds on the PI4 KB activity was evaluated by the IC50 of the response relative to the high (no virus, column 12) and low (virus+no inhibitor, column 11) controls by fitting to a four parameter dose response equation.

[4] = Spleen Concentration Assay; assay type: in vivo; conditions: male, Wistar Han, rat, intravenous, 1 mg/kg, intravenous infusion 1 mg/kg over 1 h, single male Wistar Han rat, 12 hours after the start of dosing
Procedure: e) Spleen Concentration Assay Compounds 17, 18, 19, 22 and 23 were tested in this spleen accumulation assay. Compounds were administered intravenously to rats to determine what the level of the compound in the spleen would be if all of the inhaled dose was absorbed (either orally or through the lungs) and systemic circulation was exposed to the full dose. Compounds 17, 19, 22 and 23 were formulated in 2% DMSO in Kleptose (aq, 10% w/v). Compound 18 was formulated in a 5:45:50 ratio of DMSO:PEG200:water. Formulations were administered as intravenous infusions (1 mg/kg over 1 h) to a single male, Wistar Han rat. 12 hours after the start of dosing, rats were euthanised and spleens were collected. Approximately 0.5 g samples of spleen were taken and homogenised in 4 mL water. 100 μL of the resulting homogenates were prepared by protein precipitation with 300 μL of acetonitrile containing an internal standard and assayed (along with calibration standards prepared in the same manner) by reversed-phase liquid chromatography-mass spectrometry, using a heated electrospray source and operated in the positive ion multiple reaction monitoring mode. The liquid chromatography column used was a Waters Cortecs C18 2.7 μm particle size, 50×2.1 mm column at 60° C., and the mobile phase, operated as a gradient, utilised (A) 0.1% formic acid (aq) and (B) 0.1% formic acid in acetonitrile, operated at a flow rate of 1 mL/min.

Row | Compound | IC50 [2] [nM] | IC50 [3] [nM] | concentration at 12 h [4] [ng/g] | accumulation of compound in lung tissue [1] | histological findings following IN dose ([1]; rat nasal cavity and lung)
1 | COc1ccc(-c2c(C)nn3c(NCc4cccc(-n5cccc5)c4)cc(OCCCN(C)C)nc23)cc1S(C)(=O)=O [GSK3180404A] |  |  |  | substantial accumulation of compound in lung tissue | 
2 | COc1ccc(-c2c(C)nn3c(NCc4cccc(-c5nccn5C)c4)cc(C(O)C4CC4)nc23)cc1S(=O)(=O)CCO (stereo not shown) [Compound 4] | ≤ 3.98 | ≤ 25.1 |  |  | 
3 | COc1ccc(-c2c(C)nn3c(NCc4cccc(-c5nccn5C)c4)cc(C(C)O)nc23)cc1S(=O)(=O)CCO (single isomer, unassigned) [Compound 71, 2-((5-(5-(1-Hydroxyethyl)-2-methyl-7-((3-(1-methyl-1H-imidazol-2-yl)benzyl)amino)pyrazolo[1,5-a]pyrimidin-3-yl)-2-methoxyphenyl)sulfonyl)ethan-1-ol] | ≤ 3.98 | ≤ 25.1 |  |  | 
4 | Cc1ccc(-c2c(C)nn3c(NCc4cccc(-c5nccn5C)c4)cc(C4(O)CC4)nc23)cc1C(=O)N(C)CCCO [Compound 79, 5-(5-(1-Hydroxycyclopropyl)-2-methyl-7-((3-(1-methyl-1H-imidazol-2-yl)benzyl)amino)pyrazolo[1,5-a]pyrimidin-3-yl)-N-(3-hydroxypropyl)-N,2-dimethylbenzamide] | ≤ 3.98 | ≤ 25.1 |  |  | 
5 | CCN(CCO)C(=O)c1cc(-c2c(C)nn3c(NCc4cccc(-c5nccn5C)c4)cc(C(C)(C)O)nc23)ccc1C [Compound 38, N-ethyl-N-(2-hydroxyethyl)-5-(5-(2-hydroxypropan-2-yl)-2-methyl-7-((3-(1-methyl-1H-imidazol-2-yl)benzyl)amino)pyrazolo[1,5-a]pyrimidin-3-yl)-2-methylbenzamide] | ≤ 3.98 | ≤ 25.1 |  |  | 
6 | Cc1cc(NCc2cccc(-n3cccc3)c2)n2nc(C)c(-c3ccc(Cl)c(C(=O)N(C)CCN(C)C)c3)c2n1 [GSK3159043A] |  |  |  | substantial accumulation of compound in lung tissue | ulceration in the rat nasal cavity and bronchial epithelial hyperplasia in the rat lung
7 | COc1ccc(-c2c(C)nn3c(NCc4cccc(-c5nccn5C)c4)cc(C(C)(C)O)nc23)cc1C(=O)N(C)CCCO [Compound 32, 5-(5-(2-hydroxypropan-2-yl)-2-methyl-7-((3-(1-methyl-1H-imidazol-2-yl)benzyl)amino)pyrazolo[1,5-a]pyrimidin-3-yl)-N-(3-hydroxypropyl)-2-methoxy-N-methylbenzamide] | ≤ 3.98 | ≤ 25.1 |  |  | 
8 | COc1ccc(-c2c(C)nn3c(NCc4cccc(-c5nccn5C)c4)cc(C(C)O)nc23)cc1S(=O)(=O)CCO (stereo not shown) [Compound 2, 2-((5-(5-(1-Hydroxyethyl)-2-methyl-7-((3-(1-methyl-1H-imidazol-2-yl)benzyl)amino)pyrazolo[1,5-a]pyrimidin-3-yl)-2-methoxyphenyl)sulfonyl)ethan-1-ol] | ≤ 3.98 | ≤ 25.1 |  |  | 
9 | COc1ccc(-c2c(C)nn3c(NCc4cccc(-c5nccn5C)c4)cc(C(C)(C)O)nc23)cc1C(=O)N(C)C [Compound 23] | ≤ 3.98 |  | < 7 |  | 
10 | Cc1nn2c(NCc3cccc(-c4nccn4C)c3)cc(C(C)(C)O)nc2c1-c1cccc(C(=O)N(C)CCCO)c1 [Compound 87, 3-(5-(2-Hydroxypropan-2-yl)-2-methyl-7-((3-(1-methyl-1H-imidazol-2-yl)benzyl)amino)pyrazolo[1,5-a]pyrimidin-3-yl)-N-(3-hydroxypropyl)-N-methylbenzamide] | ≤ 3.98 | ≤ 25.1 |  |  | 
11 | COc1ccc(-c2c(C)nn3c(NCc4cccc(-c5nccn5C)c4)cc(C(C)(C)O)nc23)cc1C(=O)N1CCC(C)(O)C1 (stereo not shown) [Compound 27] | ≤ 3.98 | ≤ 25.1 |  |  | 

Second part, led by results:

Row | IC50 [2] [nM] | IC50 [3] [nM] | concentration at 12 h [4] [ng/g] | Compound | accumulation of compound in lung tissue [1] | histological findings following IN dose ([1]; rat nasal cavity and lung)
12 | ≤ 3.98 | ≤ 25.1 |  | COc1ccc(-c2c(C)nn3c(NCc4cccc(-c5nccn5C)c4)cc(C(C)(C)O)nc23)cc1C(=O)N(C)CCO [Compound 26] |  | 
13 | ≤ 3.98 | ≤ 25.1 |  | Cc1ccc(-c2c(C)nn3c(NCc4cccc(-c5nccn5C)c4)cc(C(C)CO)nc23)cc1C(=O)N(C)CCCO (stereo not shown) [Compound 54, 5-(5-(1-Hydroxypropan-2-yl)-2-methyl-7-((3-(1-methyl-1H-imidazol-2-yl)benzyl)amino)pyrazolo[1,5-a]pyrimidin-3-yl)-N-(3-hydroxypropyl)-N,2-dimethylbenzamide] |  | 
14 | ≤ 3.98 | ≤ 25.1 |  | CCC(O)c1cc(NCc2cccc(-c3nccn3C)c2)n2nc(C)c(-c3ccc(OC)c(C(=O)N(C)C4CCOCC4)c3)c2n1 (single isomer, unassigned) [Compound 77, 5-(5-(1-Hydroxypropyl)-2-methyl-7-((3-(1-methyl-1H-imidazol-2-yl)benzyl)amino)pyrazolo[1,5-a]pyrimidin-3-yl)-2-methoxy-N-methyl-N-(tetrahydro-2H-pyran-4-yl)benzamide] |  | 
15 | ≤ 3.98 | ≤ 25.1 |  | COc1ccc(-c2c(C)nn3c(NCc4cccc(-c5nccn5C)c4)cc(CC4CCOCC4)nc23)cc1S(=O)(=O)CCO [Compound 85, 2-((2-Methoxy-5-(2-methyl-7-((3-(1-methyl-1H-imidazol-2-yl)benzyl)amino)-5-((tetrahydro-2H-pyran-4-yl)methyl)pyrazolo[1,5-a]pyrimidin-3-yl)phenyl)sulfonyl)ethan-1-ol] |  | 
16 | ≤ 3.98 | ≤ 25.1 |  | COc1ccc(-c2c(C)nn3c(NCc4cccc(-c5nccn5C)c4)cc(C(C)(C)O)nc23)cc1C(=O)N1CCCOCC1 [Compound 28] |  | 
